According to ChEMBL document CHEMBL1130525, “Robustaflavone, a naturally occurring biflavanoid, is a potent non-nucleoside inhibitor of hepatitis B virus replication in vitro” (Bioorg Med Chem Lett, 1997):

Experiments:
[1] = tested on: HepG2; test: Effective concentration necessary to decrease extracellular Hepatitis B virus DNA levels by 50% in human hepatoblastoma cell line (2.2.15 cells) in vitro; type: functional, cell-based
[2] = tested on: HepG2; test: Effective concentration necessary to decrease extracellular Hepatitis B virus DNA levels by 90% in human hepatoblastoma cell line (2.2.15 cells) in vitro; type: functional
[3] = In vitro selectivity index measured for IC50 to that of EC90 was determined in human hepatoblastoma cell line (2.2.15 cells); type: functional
[4] = tested on: HepG2; test: Cytotoxicity towards human hepatoblastoma cell line (2.2.15 cells) measured by inhibition of neutral red dye uptake in vitro; type: functional, cell-based
[5] = tested on: HepG2; test: Relative level of HBV viral DNA (Extracellular) following treatment of human hepatoblastoma cell line (2.2.15 cells) with the compound; type: functional
[6] = tested on: HepG2; test: Relative level of HBV viral mRNA (3.6 kb mRNA) following treatment of human hepatoblastoma cell line (2.2.15 cells) with the compound; type: functional
[7] = tested on: HepG2; test: Relative level of HBV viral antigen (HBsAg) following treatment of human hepatoblastoma cell line (2.2.15 cells) with the compound; type: functional
[8] = tested on: HepG2; test: Relative level of HBV viral mRNA (2.1 kb mRNA) following treatment of human hepatoblastoma cell line (2.2.15 cells) with the compound; type: functional
[9] = tested on: HepG2; test: Relative level of HBV viral antigen (HBcAg) following treatment of human hepatoblastoma cell line (2.2.15 cells) with the compound; type: functional
[10] = tested on: HepG2; test: Relative level of HBV viral DNA (Intracellular) following treatment of human hepatoblastoma cell line (2.2.15 cells) with the compound; type: functional
[11] = tested on: HepG2; test: Relative level of HBV viral antigen (HBeAg) following treatment of human hepatoblastoma cell line (2.2.15 cells) with the compound; type: functional

EC50 [1] [µM] | EC90 [2] [µM] | SMILES | Ratio [3] | IC50 [4] [µM] | Relative level [5] | Relative level [6] | Relative level [7] | Relative level [8] | Relative level [9] | Relative level [10] | Relative level [11]
0.038 | 0.16 | Nc1ccn([C@@H]2CS[C@H](CO)O2)c(=O)n1 [LAMIVUDINE] | 11200 | 1790 | – | – | – | – | – | – | –
0.19 | 0.92 | Nc1nc(O)c2ncn(CCC(CO)CO)c2n1 [PENCICLOVIR] | 471 | 433 | – | – | – | – | – | – | –
0.25 | 2.2 | O=c1cc(-c2ccc(O)c(-c3c(O)cc4oc(-c5ccc(O)cc5)cc(=O)c4c3O)c2)oc2cc(O)cc(O)c12 [ROBUSTAFLAVONE] | 153 | 337 | 1 | 93 | 97 | 106 | 138 | 5 | 86
1.4 | 8.4 | Nc1ccn([C@H]2CC[C@@H](CO)O2)c(=O)n1 [ZALCITABINE] | 30 | 252 | 1 | 94 | 90 | 87 | 91 | 6 | 88
